# According to article PMC4839570, “Novel Anthra[1,2-c][1,2,5]Thiadiazole-6,11-Diones as Promising Anticancer Lead Compounds: Biological Evaluation, Characterization & Molecular Targets Determination” (PLoS ONE, 2016):
# Like-named read-outs stand apart in the source and are kept apart here.
# What was measured:
# [1] = tested on: CCRF-CEM; test: NCI-60 cytotoxicity screen; format: cell-based
# [2] = tested on: A549/ATCC; test: NCI-60 cytotoxicity screen; format: cell-based
# [3] = tested on: HOP-62; test: NCI-60 cytotoxicity screen; format: cell-based
# [4] = tested on: NCI-H23; test: NCI-60 cytotoxicity screen; format: cell-based
# [5] = tested on: HCT-116; test: NCI-60 cytotoxicity screen; format: cell-based
# [6] = tested on: HCT-15; test: NCI-60 cytotoxicity screen; format: cell-based
# [7] = tested on: SW-620; test: NCI-60 cytotoxicity screen; format: cell-based
# [8] = tested on: SF-295; test: NCI-60 cytotoxicity screen; format: cell-based
# [9] = tested on: MALME-3M; test: NCI-60 cytotoxicity screen; format: cell-based
# [10] = tested on: MDA-MB-435; test: NCI-60 cytotoxicity screen; format: cell-based
# [11] = tested on: UACC-257; test: NCI-60 cytotoxicity screen; format: cell-based
# [12] = tested on: SK-OV-3; test: NCI-60 cytotoxicity screen; format: cell-based
# [13] = tested on: A498; test: NCI-60 cytotoxicity screen; format: cell-based
# [14] = tested on: BT-549; test: NCI-60 cytotoxicity screen; format: cell-based
# [15] = tested on: T-47D; test: NCI-60 cytotoxicity screen; format: cell-based
# [16] = tested on: SNB-75; test: JFCR-39 cytotoxicity screen; format: cell-based
# [17] = tested on: HCC2998; test: JFCR-39 cytotoxicity screen; format: cell-based
# [18] = tested on: NCI-H226; test: JFCR-39 cytotoxicity screen; format: cell-based
# [19] = tested on: NCI-H460; test: JFCR-39 cytotoxicity screen; format: cell-based
# [20] = tested on: LOX-IMVI; test: JFCR-39 cytotoxicity screen; format: cell-based
# [21] = tested on: ACHN; test: JFCR-39 cytotoxicity screen; format: cell-based
# [22] = tested on: ST-4; test: JFCR-39 cytotoxicity screen; format: cell-based
# [23] = tested on: MKN7; test: JFCR-39 cytotoxicity screen; format: cell-based
# [24] = tested on: MKN45; test: JFCR-39 cytotoxicity screen; format: cell-based
# [25] = tested on: PC-3; test: JFCR-39 cytotoxicity screen; format: cell-based
# [26] = tested on: NF-κB p65 subunit translocation in OVCAR-3 cells; test: NF-κB inhibition by immunocytochemical fluorescent staining; format: cell-based, human; settings: 5 μM
# Procedure: Inhibition of NF-κB was detected according to Ataie-Kachoie et al.. Briefly, each group of tested cells were seeded on coverslips treated with HCl and ethanol, and autoclaved prior to use. Immunostaining of the p65 subunit of NF-κB was done by permeabilizing the cells with Triton […], then by treating the cells with anti-NF-κB p65 rabbit monoclonal primary antibody [E379] Abcam # ab32536, followed by Alexa Fluor® 488 Donkey anti-rabbit IgG secondary antibody Biolegend # 406416. Nuclei of cells were stained with 4',6-diamidino-2-phenylindole (DAPI). Images were acquired using fluorescence microscope. Tested cells were divided into five groups which are no treatment control, no primary antibody control, PDTC (50 μM) treated control, NSC745885 (5 μM) and NSC757963 (5 μM) treated controls.
# [27] = tested on: normal cardiac myoblast H9c2 cells; settings: rat
# Procedure: Briefly, 96 well microtiter plates were inoculated with the specified human cancer cell lines in RPMI 1640 medium containing 5% fetal bovine serum and 2 mM L-glutamine at the specified plating densities. The microtiter plates were incubated at 37°C, 5% CO2, and 100% relative humidity for 24 h. The test compounds were solubilized in DMSO at 400-fold the desired final maximum test concentration, diluted with complete medium containing gentamicin and added to the wells of the microtiter plates to achieve the final desired compound concentration, then incubated for an additional 48 h at the same incubation conditions. The media were removed, the cells were fixed then stained with sulforhodamine B and the unbound dye was removed by washing with acetic acid. The bound dye was resolubilized with trizma base and the absorbance at 515 nm was measured. Cells were stained with the WST-1 cell proliferation reagent instead of sulforhodamine B in some experiments and absorbance were measured at 440 nm. The three dose response parameters GI50, TGI and LC50 were calculated for each experimental compound as follows [48]: For values where Ti ≥ Tz the formula is [ (Ti-Tz) / (C-Tz)] x 100 For values where Ti < Tz the formula is [ (Ti-Tz) / Tz] x 100 Where Ti is the absorbance of the solubilized Sulforhodamine B (SRB) (representing the number of cells) of the five different concentrations of the compound used in the test, Tz is the absorbance of the SRB at time zero, and C is the absorbance of the SRB of the control growth.
# [28] = tested on: MDA-MB-468; test: NCI-60 cytotoxicity screen; settings: Homo sapiens, MDA-MB-468, read-out: mean log10 of the GI50 values (converted)
# [29] = Homo sapiens, Fig 7, read-out: mean log10 of the GI50 values (converted)
# [30] = Homo sapiens, five-dose, read-out: GI50
# [31] = Homo sapiens, five-dose, read-out: LC50 (the source's name)
# [32] = Homo sapiens, read-out: LC50 (the source's name)
structure (smiles),measurement,setting,value
"O=C1c2ccccc2C(=O)c2c1ccc1nsnc21 [NSC745885, anthra[1,2-c][1,2,5]thiadiazole-6,11-dione]",GI50,[1]; [29],1.55 µM
same,GI50,[1]; [30],1.08 µM
same,CC50,[1]; [31],> 100 µM
same,TGI,[1]; five-dose,4.10 µM
same,GI50,[2]; [29],5.75 µM
same,GI50,[2]; [30],14.7 µM
same,CC50,[2]; [31],91 µM
same,TGI,[2]; five-dose,36.6 µM
same,GI50,[3]; [29],2.14 µM
same,GI50,[3]; [30],1.28 µM
same,CC50,[3]; [31],8.53 µM
same,inhibition at 10 µM,"[3]; Homo sapiens, single dose 10 μM, read-out: growth inhibition",100%
same,TGI,[3]; five-dose,3.31 µM
same,GI50,[4]; [29],1.07 µM
same,GI50,[4]; [30],1.44 µM
same,CC50,[4]; [31],> 100 µM
same,TGI,[4]; five-dose,6.04 µM
same,GI50,[5]; [29],2.34 µM
same,GI50,[5]; [30],1.93 µM
same,CC50,[5]; [31],> 100 µM
same,TGI,[5]; five-dose,5.40 µM
same,GI50,[6]; [29],2.04 µM
same,GI50,[6]; [30],1.71 µM
same,CC50,[6]; [31],8.12 µM
same,TGI,[6]; five-dose,3.72 µM
same,GI50,[7]; [29],3.89 µM
same,GI50,[7]; [30],1.79 µM
same,CC50,[7]; [31],6.84 µM
same,TGI,[7]; five-dose,3.50 µM
same,GI50,[8]; [29],2.4 µM
same,GI50,[8]; [30],1.9 µM
same,CC50,[8]; [31],8.56 µM
same,TGI,[8]; five-dose,4.04 µM
same,GI50,[9]; [29],2 µM
same,GI50,[9]; [30],1.66 µM
same,CC50,[9]; [31],5.96 µM
same,TGI,[9]; five-dose,3.15 µM
same,GI50,[10]; [29],1.91 µM
same,GI50,[10]; [30],1.91 µM
same,CC50,[10]; [31],5.76 µM
same,TGI,[10]; five-dose,3.31 µM
same,GI50,[11]; [29],1.62 µM
same,GI50,[11]; [30],1.74 µM
same,CC50,[11]; [31],7.09 µM
same,TGI,[11]; five-dose,3.51 µM
same,GI50,[12]; [29],4.17 µM
same,GI50,[12]; [30],7.71 µM
same,CC50,[12]; [31],53.4 µM
same,TGI,[12]; five-dose,22.5 µM
same,GI50,[13]; [29],35.5 µM
same,GI50,[13]; [30],12.4 µM
same,CC50,[13]; [31],52 µM
same,TGI,[13]; five-dose,25.4 µM
same,GI50,[14]; [29],4.57 µM
same,GI50,[14]; [30],1.63 µM
same,CC50,[14]; [31],6.01 µM
same,TGI,[14]; five-dose,3.13 µM
same,GI50,"[15]; Homo sapiens, T47D, Fig 7, read-out: mean log10 of the GI50 values (converted)",0.724 µM
same,GI50,"[15]; Homo sapiens, T47D, five-dose, read-out: GI50",1.39 µM
same,CC50,"[15]; Homo sapiens, T47D, five-dose, read-out: LC50 (the source's name)",8.27 µM
same,TGI,[15]; five-dose,3.39 µM
same,TGI,[16],3.9 µM
same,GI50,[16]; Homo sapiens,2.2 µM
same,CC50,[16]; [32],7 µM
same,TGI,[17],3.9 µM
same,GI50,"[17]; Homo sapiens, HCC 2998",2.1 µM
same,CC50,"[17]; Homo sapiens, HCC 2998, read-out: LC50 (the source's name)",7.5 µM
same,TGI,[18],3.4 µM
same,GI50,[18]; Homo sapiens,1.6 µM
same,CC50,[18]; [32],7.3 µM
same,TGI,[19],13.0 µM
same,GI50,[19]; Homo sapiens,3.4 µM
same,CC50,[19]; [32],67 µM
same,TGI,[20],4.2 µM
same,GI50,[20]; Homo sapiens,0.86 µM
same,CC50,[20]; [32],> 100 µM
same,TGI,[21],3.8 µM
same,GI50,[21]; Homo sapiens,1.9 µM
same,CC50,[21]; [32],7.6 µM
same,TGI,[22],4.0 µM
same,GI50,[22]; Homo sapiens,2 µM
same,CC50,[22]; [32],8 µM
same,TGI,[23],3.7 µM
same,GI50,"[23]; Homo sapiens, MKN-7",1.1 µM
same,CC50,"[23]; Homo sapiens, MKN-7, read-out: LC50 (the source's name)",17 µM
same,TGI,[24],9.8 µM
same,GI50,"[24]; Homo sapiens, MKN-45",3.1 µM
same,CC50,"[24]; Homo sapiens, MKN-45, read-out: LC50 (the source's name)",39 µM
same,TGI,[25],2.8 µM
same,GI50,[25]; Homo sapiens,1.3 µM
same,CC50,[25]; [32],6 µM
same,nuclear translocation of the NF-κB p65 subunit,[26],significantly capable of preventing the nuclear translocation of the NF-κB p65 subunit
same,cytotoxicity towards normal cardiac myoblast H9c2 cells,[27],significantly less cytotoxic effects on H9c2 cells at higher doses than doxorubicin
same,GI50,[28],1.82 µM
